Reference: article PMC3150631 (Nature, 2011)

Target: T1, UCP2 (mouse mitochondrial uncoupling protein 2) (Mus musculus, UniProt P70406)
T1 sequence (P70406 14-309): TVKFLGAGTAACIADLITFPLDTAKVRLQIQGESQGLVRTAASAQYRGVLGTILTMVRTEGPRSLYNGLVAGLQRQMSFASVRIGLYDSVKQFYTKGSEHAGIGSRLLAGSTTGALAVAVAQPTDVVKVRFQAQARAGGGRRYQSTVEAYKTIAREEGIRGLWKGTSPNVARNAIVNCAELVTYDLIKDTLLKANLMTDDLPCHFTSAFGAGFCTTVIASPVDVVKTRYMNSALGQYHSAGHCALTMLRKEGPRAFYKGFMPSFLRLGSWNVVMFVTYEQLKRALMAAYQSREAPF
Experiment: proton translocation in liposomes
Type: biochemical
Conditions: fatty-acid activated; inhibitor

Nc1nc2c(ncn2[C@@H]2O[C@H](COP(=O)(O)OP(=O)(O)O)[C@@H](O)[C@H]2O)c(=O)[nH]1 [GDP]
proton translocation in liposomes: it showed fatty-acid activated and GDP-inhibited proton translocation activity
